# Test results: patent US20080206422A1, “Flavour Modulating Substances” (QUEST INTERNATIONAL SERVICES B.V., priority 2004, published 2008)
# What was measured:
# [1] = Tasting of Nam Pla (Thai fish sauce) samples by a professional panel; details: sample 6: Nam Pla + 20 ppm of composition of example 2
# Procedure: (§1) Six samples were prepared:
# 3. Nam Pla* ex Unilever Thailand;
# 4. Nam Pla ex Unilever Thailand+100 ppm of a composition as prepared in example 1;
# 6. Nam Pla ex Unilever Thailand+20 ppm of a composition as prepared in example 2.
# Nam Pla is a Thai fish sauce produced from a mixture of fish (anchovy), salt and sugar that is fermented for more than 6 months at 30-35° C. Protein hydrolysate and lipid oxidation products are formed through microbiological and enzymatic breakdown of the fish.
# (§2) All samples were tasted by a professional panel. There was general agreement about the differences in taste between the samples.
# [2] = Tasting session of tap water solutions by a professional panel
# Procedure: For a tasting session the following solutions were prepared: • 1) A solution of 0.025% of a composition as prepared in example 1 in tap water; • 2) A solution of 0.025% of a composition as prepared in example 1 and 0.3% NaCl in tap water; • 3) A solution of 0.025% of a composition as prepared in example 1, 0.3% NaCl and 0.03% mono sodium glutamate in tap water; • 4) A solution of 0.005% of a composition as prepared in example 2 in tap water; • 5) A solution of 0.005% of a composition as prepared in example 2 and 0.3% NaCl in tap water; and • 6) A solution of 0.005% of a composition as prepared in example 2, 0.3% NaCl and 0.03% mono sodium glutamate in tap water. • All samples were tasted by a professional panel.
# [3] = Tasting of fish bouillon samples by a professional panel; details: sample 5: fish bouillon + 20 ppm of composition of example 2
# Procedure: as §1
# 2. Fish bouillon+100 ppm of a composition as prepared in example 1;
# 5. Fish bouillon+20 ppm of a composition as prepared in example 2; and
# as §2
smiles,measurement,setting,value
"CC(O)C(=O)NCCc1ccc(O)cc1 (stereo not drawn) [example 2, N-lactoyl tyramine]",difference in taste compared with plain Nam Pla (sample 3),[1],"more body and mouthfeel, a stronger sweet taste impression and a more longlasting effect"
same,fermented fish character and perceived quality compared with plain Nam Pla (sample 3),[1],"a more rounded, natural fermented fish character and was perceived as a higher quality Nam Pla"
same,taste description by professional panel,[2]; solution 4): 0.005% of composition of example 2 in tap water,"a clean mouthfeel, body and thickness"
same,taste description by professional panel,[2]; solution 5): 0.005% of composition of example 2 and 0.3% NaCl in tap water,"a longlasting effect, a clean mouthfeel, body and thickness and as bouillon-like"
same,taste description by professional panel,"[2]; solution 6): 0.005% of composition of example 2, 0.3% NaCl and 0.03% mono sodium glutamate in tap water","a longlasting effect, a strong clean mouthfeel, body and thickness and as strong, natural and complex bouillon-like"
same,difference in taste compared with plain fish bouillon (sample 1),[3],"more body and mouthfeel, a stronger sweet taste impression and a more longlasting effect"
